Patent publication US7846903B2, “Type II cubic liquid crystal composition” (National Institute of Advanced Industrial Science and …, priority 2004, dated 2010)
Values belong to the compound of their own block, whether it stands above or below them.

How the values were obtained:
[1] = literature; cited from earlier work
[2] = Krafft temperature (TK) by DSC of amphiphilic compound/water system; type: physicochemical; conditions: for TK (Krafft temperature): compound/water system
Description: Liquid crystals such as cubic liquid crystals formed by amphiphilic lipids are formed only at the Krafft temperature (TK), as determined depending on types and concentrations of amphiphilic lipids, or higher. Furthermore, liquid crystals generally undergo a phase transition upon changes in the concentration of the amphiphilic lipid or temperature. Accordingly, the maximal temperature (Tmax) at which a given liquid crystal structure can be stably present is also determined depending on lipid type and concentration of amphiphilic lipid. Thus, a liquid crystal structure formed by a given type of amphiphilic lipid is stably formed in the temperature range between TK and Tmax. The correlation between TK-Tmax and the concentration of the amphiphilic lipid is generally indicated as a “concentration-temperature dependent phase diagram” of the amphiphilic lipid/water system. The Krafft temperature of the amphiphilic lipid can be determined by a method known in the art, such as a method involving the preparation of such a phase diagram (e.g., Laughlin, R. G., “The Aqueous Phase Behavior of Surfactants,” 1994, Academic Press London, pp. 106-117). The Krafft temperature of a mixture of two or more amphiphilic lipids can be determined by the same method.
In the cubic liquid crystal composition of the present invention, stable bicontinuous type II cubic liquid crystals are formed at low temperatures, such as lower than 6° C. In the liquid crystal composition of the present invention, stable bicontinuous type II cubic liquid crystals are typically formed between −10° C. (or at the freezing temperature of the aqueous medium used or higher) and 80° C., and preferably between 0° C. and 50° C. The Krafft temperature of the amphiphilic lipid can be easily determined by, for example, DSC assay of an aqueous solution containing 1% to 85% by mass of amphiphilic lipid or by observing the melting behavior of the amphiphilic lipid under a (polarizing) microscope. More precisely, such temperature may be determined in accordance with a conventional technique involving the preparation of a phase diagram (e.g., Laughlin, R. G., “The Aqueous Phase Behavior of Surfactants,” 1994, Academic Press, London, pp. 106-117).
The Krafft temperatures of these amphiphilic compounds and mixtures thereof determined by the analyses described below are shown in Table 2-1 and Table 2-2.
Subsequently, the sample of mono-O-(phytanyl)pentaerythritol/water system was subjected to differential scanning calorimetry (DSC) in a temperature range between −45° C. and 70° C. DSC analysis employed the Seiko SSC/560U differential scanning calorimeter (Seiko Instruments Inc.). The sample of mono-O-(phytanyl)pentaerythritol/water system (72.4% by mass) prepared by the above method was sealed in a DSC cell, and the sample was incubated while cooling at −45° C. for 3 hours to thoroughly form a hydrated solid of mono-O-(phytanyl)pentaerythritol (hereafter abbreviated as “hydrated solid”). Subsequently, this hydrated solid was heated at a rate of temperature increase of 0.5° C./minute and a melting behavior of the hydrated solid was inspected by DSC analysis. As a result, an endothermic peak resulting from melting of the hydrated solid that begins at around −40° C. and ends at around −27° C. and an endothermic peak resulting from ice melting observed between −10° C. and 1° C. were observed, as shown in FIG. 4. In FIG. 4, the left peak is the endothermic peak resulting from melting of the hydrated solid and the right peak is the endothermic peak resulting from ice melting. Although analysis was conducted up to 70° C., other thermal transition was not observed. Substantially the same results were obtained at other concentrations. Thus, the TK of mono-O-(phytanyl)pentaerythritol was concluded to be 0° C. or lower.

[3] = Formation and structure of cubic liquid crystals by polarizing microscopy (penetration method) and SAXS; type: physicochemical
Source text: Whether or not the amphiphilic lipid/water system forms cubic liquid crystals and whether or not such composition is type I or II can be easily determined by the penetration method. A small amount (several mg) of amphiphilic lipids is placed on a glass slide for a microscope, and slight pressure is applied with a glass cover to form a thin layer of amphiphilic lipids (diameter: about 1 to 5 mm) with a thickness of about 10 μm in the gap between the glass slide and the glass cover. Upon addition of water or an aqueous medium from a side of the gap between the glass slide and the glass cover by capillary action, water gradually invades the amphiphilic lipid thin layer from the exterior edge, and a water content gradient is formed from the amphiphilic lipid thin layer/water interface toward the inside of the amphiphilic lipid thin layer. Polarizing microscopic observation thereof enables the determination of a phase type formed depending on the concentration of the amphiphilic lipid/water system. […] In FIG. 2, 4 regions are observed. The rightmost region in the photograph indicates a water region, and the other regions indicate hydrous amphiphilic lipid regions. In the photograph, the rightmost regions indicates the highest water content and the leftmost region indicates a region of amphiphilic lipids that has not yet been penetrated by water. […] Since cubic liquid crystals are stably formed at the interface of excess water and the amphiphilic lipid portion, such crystals are found to be of type II.
To this end, whether or not the liquid crystal structure has cubic lattices may be investigated by the small-angle x-ray scattering (SAXS) assay. In this process, a sample of an amphiphilic lipid/water system at a given concentration may be introduced into a quartz X-ray capillary tube, the capillary may be sealed with an oxygen burner, and the resultant may be subjected to the SAXS assay.
The cubic liquid crystal composition of the present invention is not particularly limited. […] Thus, spaces and lattice constants can be easily determined. The peak values of small angle X-ray scattering or the cubic lattice size of cubic liquid crystals in the presence of an excess aqueous solvent are at constant levels regardless of the lipid concentration. The coexistence state of cubic liquid crystals and an excess aqueous medium can be confirmed by the SAXS assay. Thus, whether or not the cubic liquid crystals are of type II can be easily determined.
In equations, nL and nW are actually measurable, and ac can be measured by the SAXS experiment. Thus, the dhc value can be determined based on equations (ii) and (iii). […] Based on such comparison, whether or not the cubic liquid crystal structure is of a bicontinuous type can be determined.
Mono-O-(3,7,11,15-tetramethylhexadecyl)pentaerythritol (hereafter referred to as “mono-O-(phytanyl)pentaerythritol,” formula (5) above) and pure water were introduced into a mixing device, and incubation was carried out while performing 100 or more times of mixing operations at room temperature (23° C.) over the period of 48 hours. Thus, a homogeneously mixed sample of mono-O-(phytanyl)pentaerythritol/water system was obtained. This sample of mono-O-(phytanyl)pentaerythritol/water system appeared to be a transparent gel composition.
Subsequently, the thus obtained sample of mono-O-(phytanyl)pentaerythritol/water system (the concentration of the amphiphilic compound: 74.6% by mass) was observed by polarizing microscopy. In entire region of the lipid portions, optically isotropic textures peculiar to the cubic liquid crystals were observed (FIG. 3). In FIG. 3, the right region indicates water and the left region indicates the sample of mono-O-(phytanyl)pentaerythritol/water system. […] Such observation indicates the formation of cubic liquid crystals.
Subsequently, the sample of mono-O-(phytanyl)pentaerythritol/water system was confirmed to be a cubic liquid crystal by small-angle x-ray scattering (SAXS). […]

[4] = lipid alone, total amphiphilic compound content 60% by mass (excess water)

Compound: CCCCCCCC/C=C\CCCCCCCC(=O)OCC(O)CO (centres unmarked) [monoolein]
Krafft temperature [1]: 15 °C

Compound: CC(C)CCCC(C)CCCC(C)CCCC(C)(O)C(O)CO (centres unmarked) [phytantriol, 3,7,11,15-tetramethylhexadecyl-1,2,3-triol]
Temperature at which cubic liquid crystals are transformed into inverted hexagonal liquid crystals [1]: ≥ 40 °C

Compound: CCCC/C=C\CCCCCCCC(=O)OCC(O)CO (centres unmarked) [monomyristolein]
Krafft temperature [1]: 35 °C

TK (Krafft temperature) ([2]; listed as β-XP): about 10 °C | maximal temperature at which the cubic liquid crystal structure is formed [3]: 75 °C | diameter of the water channel of the cubic liquid crystals [3, 4]: 3.8 nm | lattice constant of the cubic liquid crystals [3, 4]: 9.2 nm
Compound: CC(C)CCCC(C)CCCC(C)CCCC(C)CCOC1OC[C@@H](O)C(O)C1O (some centres unmarked) [formula (13), reference compound]
Krafft temperature [1]: 10 °C

Compound: CCCCCCCCCCCCCCCCCC(=O)OCC(O)CO (centres unmarked) [monooctadecanoin]
Krafft temperature [1]: 80 °C

Compound: CCCCCC/C=C\CCCCCCCCCC(=O)OC[C@H](O)CO [monovaccenin]
Krafft temperature [1]: 15 °C

Krafft temperature (° C.) ([2]; amphiphilic compound alone): 0 °C or lower | TK (Krafft temperature) [2]: ≤ 0 °C
Compound: CC(C)CCCC(C)CCCC(C)CCCC(C)CCCCOCC(CO)(CO)CO (centres unmarked) [formula (8), mono-O-(5,9,13,17-tetramethyloctadecyl)pentaerythritol]
liquid crystal phase formed ([3]; mixed with water, polarizing microscopy and/or SAXS): bicontinuous type II Pn3m cubic liquid crystals

Compound: monopentadecenoin
Krafft temperature [1]: 30 °C
